The conditions of the data set: for LOD (%) (water content by TGA) / Polymorph by XRD: one week exposure; for water content: after exposure at about 100% relative humidity for one week, hydrochloride; for water absorption, outcome in words: one-week exposure at 100% relative humidity. Here is the method: After each exposure the water content was determined by Thermal Gravimetric Analysis (TGA) and reported as loss on drying (LOD) as a weight percentage and the crystal structure was determined by X-ray Diffraction (XRD).
The X-Ray diffraction (XRD) analysis was conducted using an ARL X-Ray powder diffractometer (model X'TRA-030) equipped with a Peltier detector, round standard aluminum sample holder with round zero background, and quartz plate. The scanning parameters were from a range of about 2-40 degree two θ (±0.2 degrees) and a continuous scan at a rate of about 3 degrees/min.
Thermal Gravimetric Analysis (TGA) was conducted using a Mettler Toledo TGA/SDTA 851^e using a sample weight of about 7-15 mg, a heating rate of about 10° C. min. under a N2 stream at a N2 flow rate of about 50 ml/min. The samples were scanned at a range between about 30° C. to about 250° C.

Where two headings read alike, the source gives them in different places.

Consider `CC(C)(C)NC[C@H](O)c1ccc(O)c(CO)c1.Cl` [Polymorph B, (R)-α^1-[[(1,1-dimethylethyl)amino]methyl]-4-hydroxy-1,3-benzenedimethanol hydrochloride], for which the water content entry was “about 36%” and the “water absorption, outcome in words” value is “absorbed sufficient water to dissolve the polymorph”. The “LOD (%) (water content by TGA)” value (RH 0%) is 0.21%. Moreover, the “LOD (%) (water content by TGA)” value (RH 20%) is on record as 0.25%. Moreover, the “LOD (%) (water content by TGA)” value (RH 40%) is 0.25%. In addition, the “LOD (%) (water content by TGA)” value (RH 60%) was 0.30%. For the setting “RH 80%”, the “LOD (%) (water content by TGA)” value is 0.48% and the “Polymorph by XRD” value was “A >> B”. Under “RH 100%”, the “LOD (%) (water content by TGA)” value is 36.0% and the “Polymorph by XRD” value was “only Polymorph A was detected”.

In the case of `CC(C)(C)NC[C@H](O)c1ccc(O)c(CO)c1.Cl` [Polymorph A, (R)-α^1-[[(1,1-dimethylethyl)amino]methyl]-4-hydroxy-1,3-benzenedimethanol hydrochloride, reference compound], the water content entry is listed as “about 34%” and the “water absorption, outcome in words” value is listed as “absorbed sufficient water to dissolve the polymorph”.

The values above are taken from US7488758B2 (Teva Pharmaceutical Fine Chemicals, S.r.l., priority 2004, dated 2009).
